Laboratory results reported in patent publication US8192962B2, “Processes for detecting toxic substances” (Daikin Industries, Ltd., priority 2001, dated 2012).

Test system: Metabolism protein genes
Assay: DNA chip mRNA expression in yeast, metabolism protein genes (Table 7)
Type: cell-based, Saccharomyces cerevisiae S288C
Method: Yeast (Saccharomyces cerevisiae S288C (α SUC2mal mel gap2 CUP1)) were incubated at 25° C. on YPD medium (yeast extract 1%, polypepton 2%, glucose 2%). One of toxic chemical substances was added to the cells at logarithmic growth phase, and the cells were further incubated for two hours. Cells were cultured without any chemical substance in the same condition, and were used as control. Concentrations of the chemical substances were defined to inhibit the growth of the yeast but not lead to death.
After completion of the incubation, the culture was centrifuged to collect the cells. To the cells, sodium acetate buffer (50 mM sodium acetate, 10 mM EDTA, 1% SDS) was added, and the mixture was shaken at 65° C. for five minutes, followed by returning to room temperature, and obtaining the supernatant, of which the procedures were repeated two times. To the supernatant, ½ amount of a solution of phenol/chloroform was added, and the mixture was centrifuged to give a supernatant, which was added with an equal amount of chloroform, and the mixture was centrifuged to give a supernatant. To the supernatant, an equal amount of isopropanol containing 0.3 M sodium acetate was added, and the mixture was allowed to stand at room temperature for 30 minutes, after which the mixture was centrifuged to give a sediment of the whole RNAs. Seventy % ethanol was added to the sediment, and the mixture was again centrifuged to give a sediment, which was then dried and dissolved in water. mRNA was isolated from the whole RNAs as followings. In view of the fact that a poly A chain is attached to the 3′ terminus of mRNA, a polynucleotide having a poly T structure which was immobilized on the surface of latex beads was used to trap the mRNA, and then the mRNA was washed and eluted with spine column (Oligotex-dT30<Super>mRNA Purification Kit, Takara). Reverse transcription of the mRNA was conducted with a reverse transcriptase (Super Script II Reverse Transcriptase; catalogue No. 18064-014, GibcoBRL) using fluorescence-labeled nucleotides to give cDNAs that were introduced with Cy3-dUTP or Cy5-dUTP during the reverse transcription.
The labeled cDNAs were dissolved in TE buffer (10mM Tris-HCl/1 mM EDTA, pH8.0), and the solution was dropped on the DNA chip containing the whole genes of yeast (DNA Chip Research Inc. Japan) so that the cDNAs were hybridized on the DNA chip at 65° C. for over 12 hours. The fluoresces intensity of the DNA chip was read with a scanner, and the ratio relative to the fluorescence intensity resulting from the absence of chemical substance was estimated as the following, which is shown in Tables 1 to 9: […]

manganese ethylenebis(dithiocarbamate) [(8)]
1.0: The level of expressed mRNA in the presence of chemical substance/The level of expressed mRNA in the absence of chemical substance (yeast gene YKL035W) | The level of expressed mRNA in the presence of chemical substance/The level of expressed mRNA in the absence of chemical substance (yeast gene YKL152C) | The level of expressed mRNA in the presence of chemical substance/The level of expressed mRNA in the absence of chemical substance (yeast gene YLR299W) | level of expressed mRNA in the presence/in the absence of chemical substance (yeast gene YNL025C) | The level of expressed mRNA in the presence of chemical substance/The level of expressed mRNA in the absence of chemical substance (yeast gene YOL153C) | level of expressed mRNA in the presence/in the absence of chemical substance (yeast gene YOL156W) | level of expressed mRNA in the presence/in the absence of chemical substance (yeast gene YOR103C) | level of expressed mRNA in the presence/in the absence of chemical substance (yeast gene YOR176W) | level of expressed mRNA in the presence/in the absence of chemical substance (yeast gene YPL057C) | level of expressed mRNA in the presence/in the absence of chemical substance (yeast gene YPL135W) | The level of expressed mRNA in the presence of chemical substance/The level of expressed mRNA in the absence of chemical substance (yeast gene YPR026W) | level of expressed mRNA in the presence/in the absence of chemical substance (yeast gene YPR165W) | level of expressed mRNA in the presence/in the absence of chemical substance (yeast gene YPR183W)
5.5: The level of expressed mRNA in the presence of chemical substance/The level of expressed mRNA in the absence of chemical substance (yeast gene YPR167C)
0.5: The level of expressed mRNA in the presence of chemical substance/The level of expressed mRNA in the absence of chemical substance (yeast gene YMR008C) | The level of expressed mRNA in the presence of chemical substance/The level of expressed mRNA in the absence of chemical substance (yeast gene YMR296C)
1.6: The level of expressed mRNA in the presence of chemical substance/The level of expressed mRNA in the absence of chemical substance (yeast gene YOL058W)
0.4: The level of expressed mRNA in the presence of chemical substance/The level of expressed mRNA in the absence of chemical substance (yeast gene YMR189W)
17.8: The level of expressed mRNA in the presence of chemical substance/The level of expressed mRNA in the absence of chemical substance (yeast gene YOL165C)
1.2: level of expressed mRNA in the presence/in the absence of chemical substance (yeast gene YLR284C) | The level of expressed mRNA in the presence of chemical substance/The level of expressed mRNA in the absence of chemical substance (yeast gene YLR307W) | The level of expressed mRNA in the presence of chemical substance/The level of expressed mRNA in the absence of chemical substance (yeast gene YMR020W)
10.6: The level of expressed mRNA in the presence of chemical substance/The level of expressed mRNA in the absence of chemical substance (yeast gene YJR155W)
1.8: The level of expressed mRNA in the presence of chemical substance/The level of expressed mRNA in the absence of chemical substance (yeast gene YMR271C) | The level of expressed mRNA in the presence of chemical substance/The level of expressed mRNA in the absence of chemical substance (yeast gene YNL012W)
13.1: The level of expressed mRNA in the presence of chemical substance/The level of expressed mRNA in the absence of chemical substance (yeast gene YNL331C)
1.3: The level of expressed mRNA in the presence of chemical substance/The level of expressed mRNA in the absence of chemical substance (yeast gene YKL091C) | The level of expressed mRNA in the presence of chemical substance/The level of expressed mRNA in the absence of chemical substance (yeast gene YLR273C) | The level of expressed mRNA in the presence of chemical substance/The level of expressed mRNA in the absence of chemical substance (yeast gene YML070W) | The level of expressed mRNA in the presence of chemical substance/The level of expressed mRNA in the absence of chemical substance (yeast gene YNR059W) | level of expressed mRNA in the presence/in the absence of chemical substance (yeast gene YOL108C) | level of expressed mRNA in the presence/in the absence of chemical substance (yeast gene YOL116W) | The level of expressed mRNA in the presence of chemical substance/The level of expressed mRNA in the absence of chemical substance (yeast gene YPL017C)
0.3: level of expressed mRNA in the presence/in the absence of chemical substance (yeast gene YLR058C)
1.5: level of expressed mRNA in the presence/in the absence of chemical substance (yeast gene YKR034W) | The level of expressed mRNA in the presence of chemical substance/The level of expressed mRNA in the absence of chemical substance (yeast gene YML054C) | The level of expressed mRNA in the presence of chemical substance/The level of expressed mRNA in the absence of chemical substance (yeast gene YNL231C) | The level of expressed mRNA in the presence of chemical substance/The level of expressed mRNA in the absence of chemical substance (yeast gene YNL332W)
0.7: level of expressed mRNA in the presence/in the absence of chemical substance (yeast gene YLR044C) | level of expressed mRNA in the presence/in the absence of chemical substance (yeast gene YLR089C) | The level of expressed mRNA in the presence of chemical substance/The level of expressed mRNA in the absence of chemical substance (yeast gene YML100W) | level of expressed mRNA in the presence/in the absence of chemical substance (yeast gene YMR015C) | level of expressed mRNA in the presence/in the absence of chemical substance (yeast gene YMR205C) | level of expressed mRNA in the presence/in the absence of chemical substance (yeast gene YMR261C) | The level of expressed mRNA in the presence of chemical substance/The level of expressed mRNA in the absence of chemical substance (yeast gene YNL045W) | The level of expressed mRNA in the presence of chemical substance/The level of expressed mRNA in the absence of chemical substance (yeast gene YNL322C) | The level of expressed mRNA in the presence of chemical substance/The level of expressed mRNA in the absence of chemical substance (yeast gene YNR019W) | level of expressed mRNA in the presence/in the absence of chemical substance (yeast gene YOR085W)
0.9: The level of expressed mRNA in the presence of chemical substance/The level of expressed mRNA in the absence of chemical substance (yeast gene YLL058W) | level of expressed mRNA in the presence/in the absence of chemical substance (yeast gene YLR006C) | level of expressed mRNA in the presence/in the absence of chemical substance (yeast gene YLR056W) | level of expressed mRNA in the presence/in the absence of chemical substance (yeast gene YLR081W) | The level of expressed mRNA in the presence of chemical substance/The level of expressed mRNA in the absence of chemical substance (yeast gene YLR180W) | The level of expressed mRNA in the presence of chemical substance/The level of expressed mRNA in the absence of chemical substance (yeast gene YLR348C) | level of expressed mRNA in the presence/in the absence of chemical substance (yeast gene YLR372W) | The level of expressed mRNA in the presence of chemical substance/The level of expressed mRNA in the absence of chemical substance (yeast gene YNL104C) | The level of expressed mRNA in the presence of chemical substance/The level of expressed mRNA in the absence of chemical substance (yeast gene YOL126C) | level of expressed mRNA in the presence/in the absence of chemical substance (yeast gene YOR002W) | The level of expressed mRNA in the presence of chemical substance/The level of expressed mRNA in the absence of chemical substance (yeast gene YOR099W) | level of expressed mRNA in the presence/in the absence of chemical substance (yeast gene YOR108W) | level of expressed mRNA in the presence/in the absence of chemical substance (yeast gene YOR178C) | level of expressed mRNA in the presence/in the absence of chemical substance (yeast gene YPL028W) | level of expressed mRNA in the presence/in the absence of chemical substance (yeast gene YPL148C) | level of expressed mRNA in the presence/in the absence of chemical substance (yeast gene YPR113W)
0.8: level of expressed mRNA in the presence/in the absence of chemical substance (yeast gene YKL148C) | The level of expressed mRNA in the presence of chemical substance/The level of expressed mRNA in the absence of chemical substance (yeast gene YLR300W) | level of expressed mRNA in the presence/in the absence of chemical substance (yeast gene YMR323W) | The level of expressed mRNA in the presence of chemical substance/The level of expressed mRNA in the absence of chemical substance (yeast gene YNL106C) | The level of expressed mRNA in the presence of chemical substance/The level of expressed mRNA in the absence of chemical substance (yeast gene YNL169C) | level of expressed mRNA in the presence/in the absence of chemical substance (yeast gene YNL192W) | level of expressed mRNA in the presence/in the absence of chemical substance (yeast gene YOL086C) | The level of expressed mRNA in the presence of chemical substance/The level of expressed mRNA in the absence of chemical substance (yeast gene YOR130C) | level of expressed mRNA in the presence/in the absence of chemical substance (yeast gene YOR142W) | The level of expressed mRNA in the presence of chemical substance/The level of expressed mRNA in the absence of chemical substance (yeast gene YOR336W) | The level of expressed mRNA in the presence of chemical substance/The level of expressed mRNA in the absence of chemical substance (yeast gene YOR347C) | level of expressed mRNA in the presence/in the absence of chemical substance (yeast gene YOR348C)
1.4: level of expressed mRNA in the presence/in the absence of chemical substance (yeast gene YLR354C)
1.1: level of expressed mRNA in the presence/in the absence of chemical substance (yeast gene YKL060C) | The level of expressed mRNA in the presence of chemical substance/The level of expressed mRNA in the absence of chemical substance (yeast gene YKL104C) | level of expressed mRNA in the presence/in the absence of chemical substance (yeast gene YKL157W) | The level of expressed mRNA in the presence of chemical substance/The level of expressed mRNA in the absence of chemical substance (yeast gene YKL213C) | The level of expressed mRNA in the presence of chemical substance/The level of expressed mRNA in the absence of chemical substance (yeast gene YKL215C) | level of expressed mRNA in the presence/in the absence of chemical substance (yeast gene YML022W) | level of expressed mRNA in the presence/in the absence of chemical substance (yeast gene YMR011W) | level of expressed mRNA in the presence/in the absence of chemical substance (yeast gene YMR083W) | The level of expressed mRNA in the presence of chemical substance/The level of expressed mRNA in the absence of chemical substance (yeast gene YMR105C) | The level of expressed mRNA in the presence of chemical substance/The level of expressed mRNA in the absence of chemical substance (yeast gene YNR033W) | level of expressed mRNA in the presence/in the absence of chemical substance (yeast gene YOR251C)
0.6: level of expressed mRNA in the presence/in the absence of chemical substance (yeast gene YLR304C) | level of expressed mRNA in the presence/in the absence of chemical substance (yeast gene YOR128C)
